Data reported in publication PMC4841536, “Characterization of the Anti-HCV Activities of the New Cyclophilin Inhibitor STG-175” (PLoS ONE, 2016).

Columns and labels:
[1] = molecular target: T1, Human recombinant CypD (Homo sapiens, UniProt P30405); experiment: α-chymotrypsin-coupled PPIase assay, CypD isomerase activity; assay type: biochemical; conditions: IC50, neutralization of the isomerase activity of CypD, 5°C, 10 concentrations 0.05–1000 nM
T1 construct: purchased Atgen
Method: Inhibition of CypA and CypD isomerase activities were quantified using a α-chymotrypsin-coupled assay adapted to a 96-well plate format. Human recombinant CypA or CypD (Atgen) was dissolved to 10 nM in PPIases buffer (50 mM Hepes, 100 mM NaCl, 1 mg/ml bovine serum albumin, 1 mg/ml α-chymotrypsin; pH 8). Succinyl-AAPF-pNA peptide substrate (Sigma) was dissolved to 3.2 mM in LiCl/trifluoroethanol. Each CypI was prepared at 10 concentrations in DMSO, then diluted into CypA/D PPIase buffer to 0.05–1000 nM. Incubations were performed at 5°C. Ninety five μL of reaction mix was added to 5 μL peptide in 96-wells and OD405 nm measured at 6-sec intervals for 6 min using a Biotek Synergy H4 plate reader. Data were fitted with Graphpad Prism 6.0 to acquire first-order rate constants, which were calculated by subtracting the rate constant from uncatalyzed reactions (no CypA/D). The catalytic rate constants were plotted as a function of inhibitor concentration to obtain IC50s.
The inhibition of the isomerase activities of CypA and CypD were measured with 10 increasing concentrations of STG-175 to quantify IC50 values.
Fig 1 Anti-PPIase and immunosuppressive activities of STG-175. A. Structures of cyclophilin inhibitors. Inhibition of CypA (B) and CypD (C) isomerase activities were assessed using the α-chymotrypsin-coupled assay. Each test compound was prepared at 10 concentrations (0.05–1000 nM). All solutions were equilibrated, and reactions conducted at 5°C. Reactions were initiated by mixing 95 μL reaction mix with 5 μL of the peptide to be cleaved and measuring OD405 nm at 6-sec intervals for 6 min. […] Enzyme catalyzed rate constants were calculated by subtracting the rate constant from uncatalyzed reactions (no CypA/D), and catalytic rate constants plotted as a function of inhibitor concentration to obtain IC50s. […] D. IL-2 promoter activation upon T-cell stimulation was determined using an engineered Jurkat T-cell line, which expresses betagalactosidase. […] The Y-axis values are expressed as percentage of activity. Data expressed as EC50s are representative of two independent experiments.

[2] = system: NS5Ai-resistant L31V NS5A Con1 GT1b replicon; experiment: Electroporated Con1 RNA replication in Huh7.5.1 cells (RT-qPCR), L31V NS5A; assay type: cell-based; conditions: Hepatitis C virus, Huh-7.5.1, 192 h, read-out: EC50 L31V NS5A
Source text: The GT1b subgenomic firefly luciferase reporter replicon pFK-I389/NS3–3 was provided by R. Bartenschlager. The GT1B subgenomic NS3, NS5A and NS5B mutants were created via homologous recombination using the In-Fusion HD Cloning kit (Clontech) as we described previously. […] The in vitro transcription of wild-type and mutant Con1 RNA was accomplished using the T7 MEGAscript kit (Ambion) by following the manufacturer’s instructions. In vitro-transcribed RNAs were introduced into Huh7.5.1 cells by electroporation. Trypsinized cells were washed twice and resuspended in phosphate-buffered saline (PBS) (calcium-free and magnesium-free) at 1x 10^7 cells per ml. Ten micrograms of RNA for each mutant was mixed with 0.4 mL of cells in a 4-mm cuvette, and a Bio-Rad Gene Pulser system was used to deliver a single pulse at 0.27 kV, 100 ohms, and 960 μF. […] RNA transfection efficiency and HCV subgenomic replication were assessed by reverse transcription-quantitative PCR (RT-qPCR) and presented as genome equivalents (GE) per microgram of total RNA as described previously. We measured by RT-qPCR the replication of wild-type, STG-175-, NS5Ai-, NS3i- and NS5Bi-resistant mutants in the presence of increasing concentrations of SGT-175, daclatasvir, telaprevir, boceprevir and sofosbuvir over a period of 8 days.
Fig 5 Cross-resistance analyses. […] Data are expressed as log of GE/μg of total RNA. […]

[3] = system: HCV (JFH-1) in Huh7.5.1 cells; experiment: Mono-infection, HCV core ELISA; assay type: cell-based, hepatitis C virus; conditions: both 0.5 and 5 μM, added together with virus, 12 days
Source text: For mono-infections: a) human hepatoma Huh7.5.1 cells were infected with HCV (JFH-1) and viral replication was quantified by HCV core ELISA (Ortho HCV antigen ELISA kit; Ortho Clinical Diagnostics, Waco Chemicals, Inc. or HCV Core ELISA, XpressBio); b) sodium-taurocholate co-transporting polypeptide (NTCP)-positive Huh7 cells were infected with hepatitis B virus (HBV) AD38 (produced from HepAD38 cells) and viral replication was quantified by HBV HBeAg ELISA; and c) human (peripheral blood monocytic cells (PBMCs) were infected with HIV-1 (JR-CSF) and viral replication was quantified by HIV-1 capsid/p24 ELISA. PBMCs were isolated as described previously. The Scripps Research Institute Normal Blood Donor Service (TSRI NBDS) provides TSRI investigators who have Human Subjects Committee-approved protocols with a source of normal blood for their research. Donors are assured of a controlled clinical setting for their blood to be drawn by licensed phlebotomists, and investigators are assured that the donors whose specimens they obtain through the service have been screened upon entry into the program and annually thereafter for a CBC, Hepatitis B and C and HIV-1. Hemoglobin determinations at every donation protect the donor from phlebotomy-induced anemia. […]

T1 sequence (P30405 30-207): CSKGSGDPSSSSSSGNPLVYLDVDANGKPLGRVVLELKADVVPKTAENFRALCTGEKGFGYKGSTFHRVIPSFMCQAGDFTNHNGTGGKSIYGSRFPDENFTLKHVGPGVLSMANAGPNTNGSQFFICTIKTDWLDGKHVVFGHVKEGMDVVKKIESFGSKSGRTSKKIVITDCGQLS

Structure (SMILES): CC=CCC(C)C(O)C1C(=O)NC(CC)C(=O)N(C)C(CSCCCCO)C(=O)N(C)C(CC(C)(C)O)C(=O)NC(C(C)C)C(=O)N(C)C(CC(C)C)C(=O)NC(C)C(=O)NC(C)C(=O)N(C)C(CC(C)C)C(=O)N(C)C(CC(C)C)C(=O)N(C)C(C(C)C)C(=O)N1C (stereo not drawn) [STG-175]
- IC50 [1]: 1.3 nM
- EC50 [2]: 15.1 nM
- HCV infection (HCV core ELISA) [3]: totally blocked
